From patent publication US7598417B2, “Substituted fluoroethyl ureas as alpha 2 adrenergic agents” (Allergan, Inc., priority 2007, dated 2009)

How the values were obtained:
Type in all cases: cell-based
alpha2A receptor = target: T1, alpha2A receptor (Homo sapiens, UniProt P08913); test: Receptor Selection and Amplification Technology (RSAT) assay, alpha2A; settings: for EC50 / Alpha 2A EC50: RSAT, NIH-3T3 cells cotransfected with receptor and Gq/i5, not active = not active at concentrations less than 10 micromolar; for EC50: read-out: Alpha 2A EC50; for Alpha 2A IA (intrinsic activity): ratio of maximal effect of the drug to maximal effect of standard full agonist brimonidine (UK14304)
T1 construct: expressed in transfected cells; host or cells: NIH-3T3
T1 sequence (P08913 1-465): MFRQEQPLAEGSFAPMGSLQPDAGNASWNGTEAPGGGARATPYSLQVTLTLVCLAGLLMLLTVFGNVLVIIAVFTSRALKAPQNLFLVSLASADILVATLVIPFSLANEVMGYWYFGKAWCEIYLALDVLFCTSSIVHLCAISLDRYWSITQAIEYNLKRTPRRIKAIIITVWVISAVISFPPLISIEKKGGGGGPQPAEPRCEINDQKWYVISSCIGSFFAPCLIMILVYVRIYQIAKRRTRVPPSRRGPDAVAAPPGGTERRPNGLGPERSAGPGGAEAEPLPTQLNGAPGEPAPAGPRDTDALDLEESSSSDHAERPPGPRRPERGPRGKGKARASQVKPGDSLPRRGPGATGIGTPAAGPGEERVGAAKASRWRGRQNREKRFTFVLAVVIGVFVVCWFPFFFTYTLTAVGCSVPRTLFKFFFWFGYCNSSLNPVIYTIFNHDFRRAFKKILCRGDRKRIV
Experimental: (§1) Receptor Selection and Amplification Technology (RSAT) Assay
(§2) The RSAT assay measures a receptor-mediated loss of contact inhibition that results in selective proliferation of receptor-containing cells in a mixed population of confluent cells. The increase in cell number is assessed with an appropriate transfected marker gene such as β-galactosidase, the activity of which can be easily measured in a 96-well format. Receptors that activate the G protein, Gq, elicit this response. Alpha2 receptors, which normally couple to Gi, activate the RSAT response when coexpressed with a hybrid Gq protein that has a Gi receptor recognition domain, called Gq/i5.
(§3) NIH-3T3 cells are plated at a density of 2×10^6 cells in 15 cm dishes and maintained in Dulbecco's modified Eagle's medium supplemented with 10% calf serum. One day later, cells are cotransfected by calcium phosphate precipitation with mammalian expression plasmids encoding p-SV-β-galactosidase (5-10 μg), receptor (1-2 μg) and G protein (1-2 μg). 40 μg salmon sperm DNA may also be included in the transfection mixture. Fresh media is added on the following day and 1-2 days later, cells are harvested and frozen in 50 assay aliquots. Cells are thawed and 100 μl added to 100 μl aliquots of various concentrations of drugs in triplicate in 96-well dishes. Incubations continue 72-96 hr at 37° C. After washing with phosphate-buffered saline, β-galactosidase enzyme activity is determined by adding 200 μl of the chromogenic substrate (consisting of 3.5 mM o-nitrophenyl-β-D-galactopyranoside and 0.5% nonidet P-40 in phosphate buffered saline), incubating overnight at 30° C. and measuring optical density at 420 nm. The absorbance is a measure of enzyme activity, which depends on cell number and reflects a receptor-mediated cell proliferation. The efficacy or intrinsic activity is calculated as a ratio of the maximal effect of the drug to the maximal effect of a standard full agonist for each receptor subtype. Brimonidine, also called UK14304, the chemical structure of which is shown below, is used as the standard agonist for the alpha2A, alpha2B and alpha2C receptors. The EC50 is the concentration at which the drug effect is half of its maximal effect.
(§4) EC50 values are nanomolar. NA stands for “not active” at concentrations less than 10 micromolar. IA stands for “intrinsic activity.”

alpha2B receptor = target: T2, alpha2B receptor (Homo sapiens, UniProt P18089); test: Receptor Selection and Amplification Technology (RSAT) assay, alpha2B; settings: for EC50: read-out: Alpha 2B EC50; for Alpha 2B IA (intrinsic activity): ratio of maximal effect of the drug to maximal effect of standard full agonist brimonidine (UK14304)
T2 construct: expressed in transfected cells; host or cells: NIH-3T3
T2 sequence (P18089 1-450): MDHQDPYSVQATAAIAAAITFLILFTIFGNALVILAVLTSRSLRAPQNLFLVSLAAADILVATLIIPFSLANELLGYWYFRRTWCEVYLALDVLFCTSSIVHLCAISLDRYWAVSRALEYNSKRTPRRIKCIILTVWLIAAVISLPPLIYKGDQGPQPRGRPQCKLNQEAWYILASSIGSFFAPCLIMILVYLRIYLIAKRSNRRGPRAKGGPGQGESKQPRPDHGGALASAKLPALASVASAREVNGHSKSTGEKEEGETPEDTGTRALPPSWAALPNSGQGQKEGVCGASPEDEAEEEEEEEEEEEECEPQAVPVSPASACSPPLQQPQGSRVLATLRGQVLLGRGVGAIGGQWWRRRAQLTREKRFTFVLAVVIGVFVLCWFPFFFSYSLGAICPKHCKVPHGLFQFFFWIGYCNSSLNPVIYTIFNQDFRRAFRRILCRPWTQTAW
Experimental: as §1, §2, §3
The results of the RSAT assay with several exemplary compounds of the invention are disclosed in Table 1 above together with the chemical formulas of these exemplary compounds. EC50 values are nanomolar. NA stands for “not active” at concentrations less than 10 micromolar. IA stands for “intrinsic activity.”

alpha2C receptor = target: T3, alpha2C receptor (Homo sapiens, UniProt P18825); test: Receptor Selection and Amplification Technology (RSAT) assay, alpha2C; settings: for EC50 / Alpha 2C EC50: RSAT, NIH-3T3 cells cotransfected with receptor and Gq/i5, not active = not active at concentrations less than 10 micromolar; for EC50: read-out: Alpha 2C EC50; for Alpha 2C IA (intrinsic activity): ratio of maximal effect of the drug to maximal effect of standard full agonist brimonidine (UK14304)
T3 construct: expressed in transfected cells; host or cells: NIH-3T3
T3 sequence (P18825 1-462): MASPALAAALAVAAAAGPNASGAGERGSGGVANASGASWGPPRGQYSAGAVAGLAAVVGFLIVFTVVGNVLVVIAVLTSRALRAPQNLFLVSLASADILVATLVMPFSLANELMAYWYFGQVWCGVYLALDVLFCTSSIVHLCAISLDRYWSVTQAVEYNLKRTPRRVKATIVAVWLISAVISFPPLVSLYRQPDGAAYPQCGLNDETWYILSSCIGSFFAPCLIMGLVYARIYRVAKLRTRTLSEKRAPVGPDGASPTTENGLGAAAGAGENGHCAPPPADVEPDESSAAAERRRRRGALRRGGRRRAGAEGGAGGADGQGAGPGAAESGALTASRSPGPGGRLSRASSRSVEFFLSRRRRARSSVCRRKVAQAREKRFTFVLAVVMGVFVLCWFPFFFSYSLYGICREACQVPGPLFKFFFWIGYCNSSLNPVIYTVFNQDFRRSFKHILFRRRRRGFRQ
Experimental: as §1, §2, §3, §4

[1] = RSAT, NIH-3T3 cells cotransfected with receptor and Gq/i5, not active = not active at concentrations less than 10 micromolar

Row | EC50 (alpha2A receptor) [nM] | Alpha 2A IA (intrinsic activity) (alpha2A receptor) | EC50 (alpha2B receptor; [1]) [nM] | Alpha 2B IA (intrinsic activity) (alpha2B receptor) | EC50 (alpha2C receptor) [nM] | Alpha 2C IA (intrinsic activity) (alpha2C receptor) | Alpha 2A EC50 (alpha2A receptor) | Alpha 2C EC50 (alpha2C receptor) | Alpha 2B EC50 (alpha2B receptor; [1]) | Compound
1 | 120 | 0.59 | 1.2 | 1.1 | 67.2 | 0.79 |  |  |  | Cc1cccc2c1CCC2NC(=O)NCCF (stereo not drawn)
2 |  |  | 156 | 0.45 |  |  | not active | not active |  | O=C(NCCF)NC1Cc2cccc(Br)c2C1 (stereo not drawn)
3 |  |  | 1370 | 0.45 |  |  | not active | not active |  | COc1ccc2c(c1)CC(NC(=O)NCCF)C2 (stereo not drawn)
4 | 95 | 0.62 | 8.3 | 0.95 | 102 | 0.73 |  |  |  | O=C(NCCF)NC1CCc2c(OC(=O)c3ccccc3)cccc21 (stereo not drawn)
5 |  |  | 18.7 | 0.97 | 117 | 0.53 | not active |  |  | O=C(NCCF)NC1CCc2ccc(F)c(F)c21 (stereo not drawn)
6 |  |  | 21 | 0.68 | 182 | 0.32 | not active |  |  | O=C(NCCF)NC1Cc2cccc(F)c2C1 (stereo not drawn)
7 |  |  | 15.4 | 0.67 | 12.5 | 0.44 | not active |  |  | O=C(NCCF)NC1Cc2cccc(Cl)c2C1 (stereo not drawn)
8 | 1470 | 0.4 | 1740 | 0.84 |  |  |  | not active |  | CCC[C@@H]1CCCC[C@H]1NC(=O)NCCF
9 | 68.3 | 0.52 | 8.2 | 1.03 | 107 | 0.76 |  |  |  | O=C(NCCF)NC1CCCc2c(F)cccc21 (stereo not drawn)
10 | 34.9 | 1.05 | 2.5 | 1.03 | 116 | 1.1 |  |  |  | O=C(NCCF)NC1CCc2c(Cl)cccc21 (stereo not drawn)
11 |  |  | 26.4 | 0.85 |  |  | not active | not active |  | CC1Cc2ccccc2C1NC(=O)NCCF (stereo not drawn)
12 |  |  | 845 | 0.31 |  |  | not active | not active |  | O=C(NCCF)NC1CCc2cc(Cl)ccc21 (stereo not drawn)
13 | 130 | 0.76 | 1.8 | 1.05 | 107 | 0.68 |  |  |  | O=C(NCCF)NC1CCc2c(F)cccc21 (stereo not drawn)
14 | 109 | 0.49 | 27 | 0.91 | 391 | 0.58 |  |  |  | Cc1cc(C)c2c(c1)C(NC(=O)NCCF)CCC2 (stereo not drawn)
15 |  |  | 10.6 | 0.99 | 103 | 0.47 | not active |  |  | CCc1cccc2c1CCC2NC(=O)NCCF (stereo not drawn)
16 |  |  |  |  | 1440 | 0.35 | not active |  | not active | COc1ccc2c(c1)CCC2NC(=O)NCCF (stereo not drawn)
